ChEMBL document CHEMBL6078646, “Target Ligand Separation and Identification of Isoforsythiaside as a Histone Lysine-Specific Demethylase 1 Covalent Inhibitor Against Breast Cancer Metastasis” (J Med Chem, 2024)
Activity calls are given as the source filed them. The calls are words filed in the database; no cut-off is given here.

Legend:
[1] = Half-life in male Sprague-Dawley rat at 10 mg/kg, ip measured at 0 to 1440 mins by LC-MS/MS analysis; format: ADME, organism-based; conditions: in vivo, time 0-1440 min
[2] = target: T1, Lysine-specific histone demethylase 1A (Homo sapiens, UniProt O60341); experiment: Binding affinity to recombinant LSD1 (unknown origin) at S817 residue by LC-MS/MS analysis
[3] = target: T1, Lysine-specific histone demethylase 1A; experiment: Non-competitive inhibition of LSD1 (unknown origin) in presence of FAD by Lineweaver-Burk plot analysis
MDA-MB-231 [4] = experiment: Induction of RBMS3 promoter transcriptional activity in human MDA-MB-231 cells by luciferase reporter gene assay; format: functional, cell-based
MDA-MB-231 [5] = experiment: Inhibition of cell migration in human MDA-MB-231 cells incubated for 24 hrs by phase contrast microscopy based wound healing assay; format: functional; conditions: dose 0-32 µM
[6] = Toxicity in female Balb/c nude mouse xenografted with human MDA-MB-231 cells expressing luciferase assessed as appearance of liver lesions at 12 to 50 mg/kg, ip administered every 3 days and measured after 30 days by H and E staining based analysis; format: organism-based; conditions: in vivo, 720 h, dose 12-50 mg/kg, time 30 day
Homo sapiens [7] = organism: Homo sapiens; experiment: Effect on LSD1/CoREST/HDAC1/HDAC2 (unknown origin) complex by coimmunoprecipitation analysis
[8] = Toxicity in female Balb/c nude mouse xenografted with human MDA-MB-231 cells expressing luciferase assessed as abnormalities kidney at 12 to 50 mg/kg, ip administered every 3 days and measured after 30 days by H and E staining based analysis; format: organism-based; conditions: in vivo, 720 h, dose 12-50 mg/kg, time 30 day
[9] = target: T1, Lysine-specific histone demethylase 1A; experiment: Inhibition of recombinant His-tagged LSD1 (157 to 852 residues) (unknown origin) expressed in Escherichia coli BL21 (DE3) cells using H3K4me2 peptide as substrate incubated for 30 mins by fluorescence microplate reader analysis
MDA-MB-231 [10] = experiment: Antimetastatic activity against human MDA-MB-231 cells expressing luciferase xenografted in female Balb/c nude mouse assessed as reduction in fluorescence intensity in lungs at 12 mg/kg, ip administered every 3 days and measured on day 15 by bioluminescence imaging analysis relative to control; format: functional; design: scale not given: the % may be the effect or the level left; conditions: time 15 day
[11] = target: T1, Lysine-specific histone demethylase 1A; experiment: Binding affinity to LSD1 (unknown origin) assessed as thermal stability preincubated for 30 mins followed by incubation under 37 to 52 degreeC for 5 mins by CETSA; conditions: time 35.0 min
[12] = Toxicity in female Balb/c mouse assessed as effect on hemoglobin level at 50 mg/kg, ip administered every other day for 7 times; format: organism-based; conditions: in vivo
MDA-MB-231 [13] = experiment: Inhibition of epithelial to mesenchymal transition in human MDA-MB-231 cells assessed as downregulation of N-cadherin protein expression by Western blotting analysis; format: functional, cell-based; conditions: dose 0-32 µM
[14] = Toxicity in female Balb/c mouse assessed as histological changes in heart at 50 mg/kg, ip administered every other day for 7 times by H and E staining based analysis; format: organism-based; conditions: in vivo
Homo sapiens [15] = organism: Homo sapiens; experiment: Binding affinity to recombinant LSD1 Ser817A mutant (unknown origin) by MST assay
MDA-MB-231 [16] = experiment: Upregulation of RBMS3 protein expression in human MDA-MB-231 cells at 4 to 32 uM by Western blotting analysis; format: functional, cell-based; conditions: dose 4-32 µM
MDA-MB-231 [17] = experiment: Upregulation of RBMS3 promoter level in human MDA-MB-231 cells by chromatin immunoprecipitation assay; format: functional, cell-based
MDA-MB-231 [18] = experiment: Antimetastatic activity against LSD1 knockout human MDA-MB-231 cells xenografted in mouse model assessed as reduction in number of metastatic nodules in the lung measured after 27 days; format: functional, cell-based; conditions: time 27.0 day
[19] = Toxicity in female Balb/c mouse assessed as effect on ALT level at 50 mg/kg, ip administered every other day for 7 times; format: organism-based; conditions: in vivo
MDA-MB-231 [20] = experiment: Inhibition of epithelial to mesenchymal transition in human MDA-MB-231 cells assessed as upregulation of E-cadherin protein expression by Western blotting analysis; format: functional, cell-based; conditions: dose 0-32 µM
[21] = Toxicity in female Balb/c mouse assessed as effect on monocytes level at 50 mg/kg, ip administered every other day for 7 times; format: organism-based; conditions: in vivo
MDA-MB-231 [22] = experiment: Upregulation of RBMS3 mRNA level in human MDA-MB-231 cells by qRT-PCR analysis; format: functional, cell-based; conditions: dose 4-32 µM
MDA-MB-231 [23] = experiment: Effect on N-cadherin protein expression in LSD1 knockout human MDA-MB-231 cells at 16 uM by Western blot analysis; format: functional, cell-based
[24] = target: T1, Lysine-specific histone demethylase 1A; experiment: Inhibition of LSD1 (unknown origin) activity measured after 80-fold dilution by dilution assay
Homo sapiens [25] = organism: Homo sapiens; experiment: Binding affinity to recombinant LSD1 Ser817A mutant (unknown origin) assessed as thermal stability at 50 uM preincubated for 30 mins followed by incubation under 37 to 52 degreeC for 5 mins by CETSA; conditions: time 35.0 min
MDA-MB-231 [26] = experiment: Antimetastatic activity against human MDA-MB-231-Luc cells xenografted in female Balb/c nude mouse assessed as smaller metastatic nodules in lung at 12 to 50 mg/kg, ip administered every 3 days and measured after 30 days by H and E staining based analysis; format: functional, organism-based; conditions: dose 12-50 mg/kg, time 30.0 day
MDA-MB-231 [27] = experiment: Effect on E-cadherin protein expression in LSD1 knockout human MDA-MB-231 cells at 16 uM by Western blot analysis; format: functional, cell-based
MDA-MB-231 [28] = experiment: Effect on CD86 protein expression in LSD1 knockout human MDA-MB-231 cells at 16 uM by Western blot analysis; format: functional, cell-based
[29] = Toxicity in female Balb/c mouse assessed as histological changes in liver at 50 mg/kg, ip administered every other day for 7 times by H and E staining based analysis; format: organism-based; conditions: in vivo
MDA-MB-231 [30] = experiment: Upregulation of H3K4me1 protein expression in human MDA-MB-231 cells by Western blot analysis; format: functional, cell-based; conditions: dose 4-32 µM
[31] = Toxicity in female Balb/c mouse assessed as effect on WBC level at 50 mg/kg, ip administered every other day for 7 times; format: organism-based; conditions: in vivo
[32] = Toxicity in female Balb/c nude mouse xenografted with human MDA-MB-231 cells expressing luciferase assessed as abnormalities liver at 12 to 50 mg/kg, ip administered every 3 days and measured after 30 days by H and E staining based analysis; format: organism-based; conditions: in vivo, 720 h, dose 12-50 mg/kg, time 30 day
[33] = Toxicity in female Balb/c mouse assessed as effect on RBC level at 50 mg/kg, ip administered every other day for 7 times; format: organism-based; conditions: in vivo
[34] = Toxicity in female Balb/c mouse assessed as effect on creatine kinase level at 50 mg/kg, ip administered every other day for 7 times; format: organism-based; conditions: in vivo
MDA-MB-231 [35] = experiment: Antimetastatic activity against human MDA-MB-231 cells expressing luciferase xenografted in female Balb/c nude mouse assessed as reduction in number of metastatic nodules in the lung at 25 mg/kg, ip administered every 3 days and measured after 30 days by H and E staining based histopathological analysis relative to control; format: functional; design: scale not given: the % may be the effect or the level left; conditions: time 30 day
[36] = Toxicity in female Balb/c nude mouse xenografted with human MDA-MB-231 cells expressing luciferase assessed as appearance of heart lesions at 12 to 50 mg/kg, ip administered every 3 days and measured after 30 days by H and E staining based analysis; format: organism-based; conditions: in vivo, 720 h, dose 12-50 mg/kg, time 30 day
[37] = target: T1, Lysine-specific histone demethylase 1A; experiment: Inhibition of LSD1 in human MDA-MB-231 cells assessed as increase in H3K4me1 accumulation by Western blotting analysis; format: cell-based; conditions: dose 0-32 µM
MDA-MB-231 [38] = experiment: Effect on LSD1 protein expression in human MDA-MB-231 cells at 4 to 32 uM by Western blot analysis; format: functional, cell-based; conditions: dose 4-32 µM

In the case of `C[C@@H]1O[C@H](OC[C@H]2O[C@@H](OCCc3ccc(O)c(O)c3)[C@H](O)[C@@H](OC(=O)/C=C/c3ccc(O)c(O)c3)[C@@H]2O)[C@H](O)[C@H](O)[C@H]1O`, the half-life [1] is reported as 34.8 min, the Activity [2] is reported as “Active” and the inhibition [3] is reported as “Active”. The Activity (MDA-MB-231 [4]) was “Active”, the inhibition (MDA-MB-231 [5]) was “Dose-dependent-effect” and the Activity [6] was “Non-toxic”. The Activity (Homo sapiens [7]) was “inactive”, the Activity [8] was “Non-toxic” and the IC50 [9] was 1580 nM. For the same molecule, the Activity (MDA-MB-231 [10]) was 32.9%, the Activity [11] was “Active” and the Activity [12] was “Non-toxic”. For the same molecule, the inhibition (MDA-MB-231 [13]) was “Dose-dependent-effect”, the Activity [14] was “Non-toxic” and the Activity (Homo sapiens [15]) was “inactive”. The Activity (MDA-MB-231 [16]) was “Active”, the Activity (MDA-MB-231 [17]) was “Active” and the Activity (MDA-MB-231 [18]) was “Active”. For the same molecule, the Activity [19] was “Non-toxic”, the inhibition (MDA-MB-231 [20]) was “Dose-dependent-effect” and the Activity [21] was “Non-toxic”. The Activity (MDA-MB-231 [22]) was “Dose-dependent-effect”, the Activity (MDA-MB-231 [23]) was “inactive” and the inhibition [24] was “Active; Compound Exerts Inhibition In An Irreversible Manner”. The Activity (Homo sapiens [25]) was “inactive”, the Activity (MDA-MB-231 [26]) was “Active” and the Activity (MDA-MB-231 [27]) was “inactive”. The Activity (MDA-MB-231 [28]) was “inactive”, the Activity [29] was “Non-toxic” and the Activity (MDA-MB-231 [30]) was “Dose-dependent-effect”. The Activity [31] was “Non-toxic”, the Activity [32] was “Non-toxic” and the Activity [33] was “Non-toxic”. The Activity [34] was “Non-toxic”, the Activity (MDA-MB-231 [35]) was 33.3% and the Activity [36] was “Non-toxic”. The inhibition [37] was “Dose-dependent-effect” and the Activity (MDA-MB-231 [38]) was “inactive”.
